{"source": "BindingDB's records for doi:10.1007/s00259-006-0324-y", "about": "(Columbia University, 2007)", "key": {"[1]": {"molecular_target": "5-hydroxytryptamine 1D receptor (Bos taurus, UniProt Q8MI13)"}, "[2]": {"molecular_target": "5-hydroxytryptamine receptor 1B (Bos mutus, UniProt L8IGV0)"}, "[3]": {"molecular_target": "5-hydroxytryptamine receptor 2A (Bos taurus, UniProt Q75Z89)"}, "[4]": {"molecular_target": "5-hydroxytryptamine receptor 2B (Bos taurus, UniProt Q8MI09)", "sequence (Q8MI09 whole entry)": "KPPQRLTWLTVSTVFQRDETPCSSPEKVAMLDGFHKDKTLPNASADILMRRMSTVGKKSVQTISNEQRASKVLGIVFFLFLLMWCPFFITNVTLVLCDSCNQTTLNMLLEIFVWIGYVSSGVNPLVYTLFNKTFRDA"}, "Beta-arrestin-2": {"molecular_target": "Beta-arrestin-2 (Bos taurus, UniProt P32120)"}, "[5]": {"molecular_target": "5-hydroxytryptamine receptor 3A (Bos taurus, UniProt F1N4Y2)", "sequence (F1N4Y2 whole entry)": "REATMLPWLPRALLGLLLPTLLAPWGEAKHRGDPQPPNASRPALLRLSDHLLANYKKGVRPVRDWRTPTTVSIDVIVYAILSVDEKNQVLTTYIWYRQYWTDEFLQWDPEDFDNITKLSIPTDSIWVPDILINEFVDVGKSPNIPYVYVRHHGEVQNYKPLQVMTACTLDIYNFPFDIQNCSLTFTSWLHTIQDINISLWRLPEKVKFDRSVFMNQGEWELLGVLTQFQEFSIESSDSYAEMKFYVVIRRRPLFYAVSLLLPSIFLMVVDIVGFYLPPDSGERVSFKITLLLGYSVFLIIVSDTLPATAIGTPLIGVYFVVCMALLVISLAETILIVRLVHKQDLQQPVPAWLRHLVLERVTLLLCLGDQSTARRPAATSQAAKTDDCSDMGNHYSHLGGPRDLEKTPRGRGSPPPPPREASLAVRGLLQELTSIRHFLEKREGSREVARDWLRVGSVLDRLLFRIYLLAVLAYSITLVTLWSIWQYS"}, "[6]": {"molecular_target": "5-hydroxytryptamine receptor 5A (Bos mutus, UniProt L8HQU1)", "sequence (L8HQU1 whole entry)": "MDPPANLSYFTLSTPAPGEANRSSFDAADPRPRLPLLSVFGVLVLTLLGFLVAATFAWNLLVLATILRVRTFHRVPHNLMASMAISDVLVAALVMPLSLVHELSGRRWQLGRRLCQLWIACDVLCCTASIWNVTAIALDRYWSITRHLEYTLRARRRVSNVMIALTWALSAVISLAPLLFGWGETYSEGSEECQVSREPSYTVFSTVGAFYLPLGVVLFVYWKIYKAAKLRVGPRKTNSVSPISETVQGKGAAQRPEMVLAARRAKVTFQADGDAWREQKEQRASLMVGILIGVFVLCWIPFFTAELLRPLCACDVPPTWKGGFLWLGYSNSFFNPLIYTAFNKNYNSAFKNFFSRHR"}, "[7]": {"molecular_target": "5-hydroxytryptamine receptor 6 (Bos mutus, UniProt L8HST4)", "sequence (L8HST4 whole entry)": "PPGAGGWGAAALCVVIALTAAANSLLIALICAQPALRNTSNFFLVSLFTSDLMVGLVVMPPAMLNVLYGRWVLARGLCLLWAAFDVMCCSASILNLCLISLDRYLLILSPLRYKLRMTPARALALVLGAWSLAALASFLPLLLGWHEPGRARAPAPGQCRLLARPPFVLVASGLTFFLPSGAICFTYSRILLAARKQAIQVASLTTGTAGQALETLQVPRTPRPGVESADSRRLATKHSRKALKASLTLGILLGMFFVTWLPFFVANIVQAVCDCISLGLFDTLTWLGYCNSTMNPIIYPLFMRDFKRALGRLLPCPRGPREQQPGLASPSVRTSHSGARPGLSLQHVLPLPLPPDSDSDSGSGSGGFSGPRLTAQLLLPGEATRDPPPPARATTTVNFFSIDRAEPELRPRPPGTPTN"}, "[8]": {"molecular_target": "5-hydroxytryptamine receptor 7 (Bos mutus, UniProt L8II28)"}, "[9]": {"molecular_target": "Solute carrier family 22 member 1 (Bos taurus, UniProt A7MBE0)"}, "[10]": {"molecular_target": "Beta-2 adrenergic receptor (Bos taurus, UniProt Q28044)"}, "[11]": {"molecular_target": "Voltage-dependent L-type calcium channel subunit beta-2 (Bos taurus, UniProt Q9MZL5)"}, "Cannabinoid receptor 2": {"molecular_target": "Cannabinoid receptor 2 (Bos taurus, UniProt E1B9P2)"}, "[12]": {"molecular_target": "Muscarinic acetylcholine receptor M2 (Bos taurus, UniProt P41985)"}, "D(1A) dopamine receptor": {"molecular_target": "D(1A) dopamine receptor (Bos taurus, UniProt Q95136)"}, "D(2) dopamine receptor": {"molecular_target": "D(2) dopamine receptor (Bos taurus, UniProt P20288)", "sequence (P20288 whole entry)": "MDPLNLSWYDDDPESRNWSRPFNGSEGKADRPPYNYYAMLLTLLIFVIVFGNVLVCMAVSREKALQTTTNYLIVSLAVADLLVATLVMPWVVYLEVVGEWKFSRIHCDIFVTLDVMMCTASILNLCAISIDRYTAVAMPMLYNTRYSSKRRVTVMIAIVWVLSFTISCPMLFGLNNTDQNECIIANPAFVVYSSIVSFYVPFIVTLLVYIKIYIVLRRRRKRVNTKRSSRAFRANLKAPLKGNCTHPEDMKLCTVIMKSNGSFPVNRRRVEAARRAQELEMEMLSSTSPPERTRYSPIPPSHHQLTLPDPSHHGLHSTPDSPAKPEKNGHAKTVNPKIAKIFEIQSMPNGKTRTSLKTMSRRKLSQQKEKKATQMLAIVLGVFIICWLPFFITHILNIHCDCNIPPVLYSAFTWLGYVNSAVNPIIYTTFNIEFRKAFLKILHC"}, "Dopamine receptor D4": {"molecular_target": "Dopamine receptor D4 (Bos taurus, UniProt Q8WNT0)", "sequence (Q8WNT0 whole entry)": "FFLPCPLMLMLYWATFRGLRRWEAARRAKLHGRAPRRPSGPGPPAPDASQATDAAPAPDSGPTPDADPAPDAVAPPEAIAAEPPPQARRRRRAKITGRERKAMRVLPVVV"}, "[13]": {"molecular_target": "Sodium-dependent dopamine transporter (Bos taurus, UniProt P27922)", "sequence (P27922 whole entry)": "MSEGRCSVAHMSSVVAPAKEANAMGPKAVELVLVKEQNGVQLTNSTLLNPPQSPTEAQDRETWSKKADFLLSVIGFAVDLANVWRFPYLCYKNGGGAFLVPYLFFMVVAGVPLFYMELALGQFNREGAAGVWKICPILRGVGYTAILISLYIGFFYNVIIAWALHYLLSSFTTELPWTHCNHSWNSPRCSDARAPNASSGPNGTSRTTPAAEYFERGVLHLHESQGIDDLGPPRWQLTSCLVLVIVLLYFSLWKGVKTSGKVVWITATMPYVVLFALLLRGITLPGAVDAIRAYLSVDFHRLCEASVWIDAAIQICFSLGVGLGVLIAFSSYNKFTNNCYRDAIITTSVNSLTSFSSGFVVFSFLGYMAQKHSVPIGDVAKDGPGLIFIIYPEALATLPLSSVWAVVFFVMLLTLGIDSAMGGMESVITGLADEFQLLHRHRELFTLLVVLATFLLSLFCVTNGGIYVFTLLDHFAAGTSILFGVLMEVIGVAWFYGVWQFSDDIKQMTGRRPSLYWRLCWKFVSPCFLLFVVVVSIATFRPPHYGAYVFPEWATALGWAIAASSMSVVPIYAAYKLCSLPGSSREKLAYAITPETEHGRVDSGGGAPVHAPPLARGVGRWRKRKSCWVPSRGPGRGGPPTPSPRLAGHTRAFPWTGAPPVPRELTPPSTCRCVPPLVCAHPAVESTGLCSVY"}, "[14]": {"molecular_target": "4-aminobutyrate aminotransferase, mitochondrial (Bos taurus, UniProt Q9BGI0)"}, "[15]": {"molecular_target": "Gamma-aminobutyric acid receptor subunit alpha-1 (Bos taurus, UniProt P08219)"}, "Glutamate receptor [16]": {"molecular_target": "Glutamate receptor (Bos taurus, UniProt E1BGZ0)"}, "Glutamate receptor [17]": {"molecular_target": "Glutamate receptor (Bos taurus, UniProt A4FV91)"}, "[18]": {"molecular_target": "Potassium voltage-gated channel subfamily H member 2 (Bos taurus, UniProt A5PKI1)", "sequence (A5PKI1 whole entry)": "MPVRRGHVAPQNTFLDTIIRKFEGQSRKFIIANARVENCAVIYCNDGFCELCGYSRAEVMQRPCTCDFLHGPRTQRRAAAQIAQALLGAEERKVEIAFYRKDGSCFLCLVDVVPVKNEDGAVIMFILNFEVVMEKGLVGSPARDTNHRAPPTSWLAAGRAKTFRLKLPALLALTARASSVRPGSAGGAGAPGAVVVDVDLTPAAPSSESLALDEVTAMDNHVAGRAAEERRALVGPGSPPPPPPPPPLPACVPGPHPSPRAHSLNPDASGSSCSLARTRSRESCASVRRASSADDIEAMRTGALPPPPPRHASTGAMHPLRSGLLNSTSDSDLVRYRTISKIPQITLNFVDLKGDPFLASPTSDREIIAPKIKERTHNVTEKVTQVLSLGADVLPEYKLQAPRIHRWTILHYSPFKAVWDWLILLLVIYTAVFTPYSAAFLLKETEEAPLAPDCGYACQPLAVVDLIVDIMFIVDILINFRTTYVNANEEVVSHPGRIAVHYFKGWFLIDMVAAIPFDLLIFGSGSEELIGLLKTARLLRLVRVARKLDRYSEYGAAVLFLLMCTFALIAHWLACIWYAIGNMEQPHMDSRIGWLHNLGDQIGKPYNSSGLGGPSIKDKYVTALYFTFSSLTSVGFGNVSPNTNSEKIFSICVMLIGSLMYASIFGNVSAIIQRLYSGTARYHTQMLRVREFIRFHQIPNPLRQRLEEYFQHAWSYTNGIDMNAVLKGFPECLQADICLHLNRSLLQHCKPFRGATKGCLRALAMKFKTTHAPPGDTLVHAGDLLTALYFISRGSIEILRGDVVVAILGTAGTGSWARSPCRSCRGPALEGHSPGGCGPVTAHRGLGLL"}, "Histamine H1 receptor": {"molecular_target": "Histamine H1 receptor (Bos taurus, UniProt A5D795)"}, "Histamine H2 receptor": {"molecular_target": "Histamine H2 receptor (Bos mutus, UniProt L8IRW0)"}, "Histamine receptor H3": {"molecular_target": "Histamine receptor H3 (Bos taurus, UniProt F1MML8)"}, "Nischarin": {"molecular_target": "Nischarin (Bos mutus, UniProt L8IEU8)"}, "[19]": {"molecular_target": "Multidrug resistance protein 1 (Bos taurus, UniProt Q65A17)", "sequence (Q65A17 whole entry)": "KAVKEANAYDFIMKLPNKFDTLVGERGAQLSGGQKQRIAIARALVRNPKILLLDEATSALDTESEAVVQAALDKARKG"}, "Beta-arrestin-1": {"molecular_target": "Beta-arrestin-1 (Bos taurus, UniProt P17870)"}, "Neuromedin-K receptor": {"molecular_target": "Neuromedin-K receptor (Bos mutus, UniProt L8IYF9)", "sequence (L8IYF9 whole entry)": "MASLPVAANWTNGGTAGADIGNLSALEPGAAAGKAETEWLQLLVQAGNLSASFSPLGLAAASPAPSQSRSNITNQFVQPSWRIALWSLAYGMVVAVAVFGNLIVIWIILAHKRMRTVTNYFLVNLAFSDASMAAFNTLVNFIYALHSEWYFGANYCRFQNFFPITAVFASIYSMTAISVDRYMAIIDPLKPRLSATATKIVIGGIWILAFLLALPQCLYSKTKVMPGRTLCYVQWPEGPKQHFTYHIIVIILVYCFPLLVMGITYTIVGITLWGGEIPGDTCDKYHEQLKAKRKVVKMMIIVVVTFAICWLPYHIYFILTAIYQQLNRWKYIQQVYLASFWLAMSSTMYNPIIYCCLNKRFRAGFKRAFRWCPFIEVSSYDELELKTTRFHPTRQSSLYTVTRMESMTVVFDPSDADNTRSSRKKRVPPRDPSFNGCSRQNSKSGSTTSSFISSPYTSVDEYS"}, "Protein lifeguard 1": {"molecular_target": "Protein lifeguard 1 (Bos taurus, UniProt Q32L53)"}, "[20]": {"molecular_target": "Sodium-dependent noradrenaline transporter (Bos taurus, UniProt P51143)"}, "[21]": {"molecular_target": "Kappa-type opioid receptor (Bos taurus, UniProt Q2KIP6)"}, "Mu-type opioid receptor": {"molecular_target": "Mu-type opioid receptor (Bos taurus, UniProt P79350)"}, "Thromboxane-A synthase": {"molecular_target": "Thromboxane-A synthase (Bos taurus, UniProt Q2KIG5)"}, "Vasopressin V1a receptor": {"molecular_target": "Vasopressin V1a receptor (Bos taurus, UniProt A2VDS9)"}, "Vasopressin V1b receptor": {"molecular_target": "Vasopressin V1b receptor (Bos taurus, UniProt F1ME85)", "sequence (F1ME85 whole entry)": "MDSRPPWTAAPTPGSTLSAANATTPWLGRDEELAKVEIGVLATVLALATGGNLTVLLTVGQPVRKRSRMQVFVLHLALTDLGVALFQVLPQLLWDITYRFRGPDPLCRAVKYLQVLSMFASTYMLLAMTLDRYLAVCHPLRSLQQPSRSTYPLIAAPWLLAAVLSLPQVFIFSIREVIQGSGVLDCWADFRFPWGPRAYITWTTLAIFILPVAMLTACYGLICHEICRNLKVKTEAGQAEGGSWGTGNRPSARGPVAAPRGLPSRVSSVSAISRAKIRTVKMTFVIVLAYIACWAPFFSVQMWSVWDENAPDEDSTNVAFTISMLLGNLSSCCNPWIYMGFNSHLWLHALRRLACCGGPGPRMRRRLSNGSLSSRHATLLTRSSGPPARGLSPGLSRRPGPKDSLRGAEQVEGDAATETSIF"}, "Vasopressin V2 receptor": {"molecular_target": "Vasopressin V2 receptor (Bos taurus, UniProt P48044)"}, "[22]": {"molecular_target": "Vesicle amine transport protein 1 homolog (T. californica)-like (Bos taurus, UniProt Q29RL6)"}, "Substance-K receptor": {"molecular_target": "Substance-K receptor (Bos taurus, UniProt P05363)", "sequence (P05363 whole entry)": "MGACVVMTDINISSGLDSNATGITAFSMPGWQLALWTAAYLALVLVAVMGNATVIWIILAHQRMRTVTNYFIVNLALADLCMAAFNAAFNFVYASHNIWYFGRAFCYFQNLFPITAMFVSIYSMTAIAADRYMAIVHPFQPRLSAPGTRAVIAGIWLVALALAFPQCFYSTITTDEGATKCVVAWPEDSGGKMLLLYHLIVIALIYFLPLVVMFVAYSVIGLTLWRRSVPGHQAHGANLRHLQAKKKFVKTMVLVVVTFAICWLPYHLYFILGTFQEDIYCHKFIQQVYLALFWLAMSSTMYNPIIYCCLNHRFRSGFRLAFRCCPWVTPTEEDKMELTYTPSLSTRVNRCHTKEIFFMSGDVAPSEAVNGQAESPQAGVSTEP"}}}
{"smiles": "COc1ccccc1N1CCN(CCCCn2ncc(=O)n(C)c2=O)CC1", "note": "[NSC_11603174]", "values": [{"measurement": "Ki", "setting": "[1]", "result": 0.0883, "unit": "µM"}, {"measurement": "Ki", "setting": "[2]", "result": 0.643, "unit": "µM"}, {"measurement": "Ki", "setting": "[3]", "result": 4.98, "unit": "µM"}, {"measurement": "Ki", "setting": "[4]", "result": 0.0736, "unit": "µM"}, {"measurement": "Ki", "setting": "Beta-arrestin-2", "result": "> 10", "unit": "µM"}, {"measurement": "Ki", "setting": "[5]", "result": "> 10", "unit": "µM"}, {"measurement": "Ki", "setting": "[6]", "result": "> 10", "unit": "µM"}, {"measurement": "Ki", "setting": "[7]", "result": "> 10", "unit": "µM"}, {"measurement": "Ki", "setting": "[8]", "result": 0.0129, "unit": "µM"}, {"measurement": "Ki", "setting": "[9]", "result": 0.00675, "unit": "µM"}, {"measurement": "Ki", "setting": "[10]", "result": "> 10", "unit": "µM"}, {"measurement": "Ki", "setting": "[11]", "result": "> 10", "unit": "µM"}, {"measurement": "Ki", "setting": "Cannabinoid receptor 2", "result": "> 10", "unit": "µM"}, {"measurement": "Ki", "setting": "[12]", "result": "> 10", "unit": "µM"}, {"measurement": "Ki", "setting": "D(1A) dopamine receptor", "result": "> 10", "unit": "µM"}, {"measurement": "Ki", "setting": "D(2) dopamine receptor", "result": "> 10", "unit": "µM"}, {"measurement": "Ki", "setting": "Dopamine receptor D4", "result": 0.0218, "unit": "µM"}, {"measurement": "Ki", "setting": "[13]", "result": "> 10", "unit": "µM"}, {"measurement": "Ki", "setting": "[14]", "result": "> 10", "unit": "µM"}, {"measurement": "Ki", "setting": "[15]", "result": "> 10", "unit": "µM"}, {"measurement": "Ki", "setting": "Glutamate receptor [16]", "result": "> 10", "unit": "µM"}, {"measurement": "Ki", "setting": "Glutamate receptor [17]", "result": "> 10", "unit": "µM"}, {"measurement": "Ki", "setting": "[18]", "result": "> 10", "unit": "µM"}, {"measurement": "Ki", "setting": "Histamine H1 receptor", "result": 1.03, "unit": "µM"}, {"measurement": "Ki", "setting": "Histamine H2 receptor", "result": 2.13, "unit": "µM"}, {"measurement": "Ki", "setting": "Histamine receptor H3", "result": "> 10", "unit": "µM"}, {"measurement": "Ki", "setting": "Nischarin", "result": "> 10", "unit": "µM"}, {"measurement": "Ki", "setting": "[19]", "result": "> 10", "unit": "µM"}, {"measurement": "Ki", "setting": "Beta-arrestin-1", "result": "> 10", "unit": "µM"}, {"measurement": "Ki", "setting": "Neuromedin-K receptor", "result": "> 10", "unit": "µM"}, {"measurement": "Ki", "setting": "Protein lifeguard 1", "result": "> 10", "unit": "µM"}, {"measurement": "Ki", "setting": "[20]", "result": "> 10", "unit": "µM"}, {"measurement": "Ki", "setting": "[21]", "result": "> 10", "unit": "µM"}, {"measurement": "Ki", "setting": "Mu-type opioid receptor", "result": "> 10", "unit": "µM"}, {"measurement": "Ki", "setting": "Thromboxane-A synthase", "result": "> 10", "unit": "µM"}, {"measurement": "Ki", "setting": "Vasopressin V1a receptor", "result": "> 10", "unit": "µM"}, {"measurement": "Ki", "setting": "Vasopressin V1b receptor", "result": "> 10", "unit": "µM"}, {"measurement": "Ki", "setting": "Vasopressin V2 receptor", "result": "> 10", "unit": "µM"}, {"measurement": "Ki", "setting": "[22]", "result": "> 10", "unit": "µM"}, {"measurement": "Ki", "setting": "Substance-K receptor", "result": "> 10", "unit": "µM"}]}
